pIC50: −log10 of the molar value. Bridge positions count the residues as written; N and C are the ends. Square brackets hold non-standard residues; d marks the D form. Peptide text beside a SMILES is read from it. * marks the point of attachment. ξ: configuration not given here. Phe(4-CONH2) = NC(=O)c1ccc(C[C@H](N)C(=O)O)cc1; Phe(4-CH2NH2) = NCc1ccc(C[C@H](N)C(=O)O)cc1; Bip = N[C@@H](Cc1ccc(-c2ccccc2)cc1)C(=O)O; Ala(2-furyl) = N[C@@H](Cc1ccco1)C(=O)O; Phe(3-F) = N[C@@H](Cc1cccc(F)c1)C(=O)O; Phe(3-Me) = Cc1cccc(C[C@H](N)C(=O)O)c1; Val(3-OH) = CC(C)(O)[C@H](N)C(=O)O; Cha = N[C@@H](CC1CCCCC1)C(=O)O; Cit = NC(=O)NCCC[C@H](N)C(=O)O; Thr(3ξ) = CC(O)[C@H](N)C(=O)O; Ala(CN) = N#CC[C@H](N)C(=O)O; Carboxymethyl = O=C(O)C*; Orn = NCCC[C@H](N)C(=O)O; Aun = NCCCCCCCCCCC(=O)O; Dab = NCC[C@H](N)C(=O)O; Dap = NC[C@H](N)C(=O)O; AEEA = NCCOCCOCC(=O)O; Ac3c = NC1(C(=O)O)CC1
target: T1, PD-1/PD-L1 interaction (PE-labeled human PD-L1-Ig binding to Jurkat cell line over-expressing human PD-1) (Homo sapiens, UniProt Q15116); experiment: Jurkat-PD-1 Cell Binding High-Content Screening Assay (CBA); format: cell-based; settings: Jurkat cell line over-expressing human PD-1; PE-labeled PD-L1-Ig 20 nM final; read-out: Jurkat hPD1-PDL1 IC50
T1 construct: expressed in transfected cells; host or cells: Jurkat
T1 sequence (Q15116 25-288): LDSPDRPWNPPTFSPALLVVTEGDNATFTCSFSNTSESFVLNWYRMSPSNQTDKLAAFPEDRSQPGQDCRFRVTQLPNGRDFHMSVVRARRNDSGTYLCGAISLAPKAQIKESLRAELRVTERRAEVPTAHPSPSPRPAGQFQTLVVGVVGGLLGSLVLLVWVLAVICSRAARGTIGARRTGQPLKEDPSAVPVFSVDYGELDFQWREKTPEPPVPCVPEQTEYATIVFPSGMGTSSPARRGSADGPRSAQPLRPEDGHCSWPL
Outline: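 First, compound is added to PD-1-expressing Jurkat cells in serum-containing DMEM and left 2 h at 37° C. Next, PE-conjugated PD-L1-Ig is introduced at 20 nM final concentration for 1 hour. Finally, cells are fixed in 4% paraformaldehyde with Hoechst 33342, washed and imaged.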

Row | pIC50 | Structure (SMILES)
1 | 7.74 | Cc1cccc(C[C@@H]2NC(=O)[C@H](CC(=O)O)NC(=O)[C@H](Cc3ccc(OCC(=O)O)cc3)NC(=O)[C@H](C(C)O)NC(=O)CSC[C@@H](C(=O)N[C@@H](CCN)C(=O)NCCCCCCCCCCC(=O)O)NC(=O)[C@H](C(C)O)NC(=O)[C@H](C(C)C)NC(=O)[C@H](CC3CCCCC3)NC(=O)[C@H](CCN)NC(=O)[C@@H](CC(C)C)NC(=O)[C@H](CCCN)NC(=O)[C@H](CCCNC(N)=O)NC(=O)[C@H](Cc3ccc(-c4ccccc4)cc3)NC(=O)[C@H](C(C)C)NC2=O)c1 (stereo partly drawn) [Compound 3458] ({CH2CO}-[Thr(3ξ)]Y(Carboxymethyl)D[Phe(3-Me)]V[Bip][Cit][Orn][dL][Dab][Cha]V[Thr(3ξ)]C[Dab][Aun]-OH; thioether N-14)
2 | 7.53 | CC(C)C[C@H]1NC(=O)[C@H](CCCN)NC(=O)[C@H](C(C)C)NC(=O)[C@H](Cc2ccc(-c3ccccc3)cc2)NC(=O)[C@H](C(C)C)NC(=O)[C@H](Cc2c[nH]c3ccccc23)NC(=O)[C@H](CC(=O)O)NC(=O)[C@H](Cc2ccc(OCC(=O)O)cc2)NC(=O)[C@H](C(C)O)NC(=O)CSC[C@@H](C(=O)N[C@@H](CCN)C(=O)NCCCCCCCCCCC(=O)O)NC(=O)[C@H](CCCCN)NC(=O)[C@H](C(C)O)NC(=O)[C@H](CC2CCCCC2)NC(=O)[C@H](CCN)NC1=O (stereo partly drawn) [Compound 3673] ({CH2CO}-[Thr(3ξ)]Y(Carboxymethyl)DWV[Bip]V[Orn][dL][Dab][Cha][Thr(3ξ)]KC[Dab][Aun]-OH; thioether N-14)
3 | 7.93 | Cc1cccc(C[C@@H]2NC(=O)[C@H](CC(=O)O)NC(=O)[C@H](Cc3ccc(OCC(=O)O)cc3)NC(=O)[C@H](CCCNC(=N)N)NC(=O)CSC[C@@H](C(=O)N[C@@H](CCN)C(=O)NCCCCCCCCCCC(=O)O)NC(=O)[C@H]([C@@H](C)O)NC(=O)[C@H](C(C)C)NC(=O)[C@H](CC3CCCCC3)NC(=O)[C@H](CCN)NC(=O)[C@@H](CC(C)C)NC(=O)[C@H](CCCN)NC(=O)[C@H](Cc3ccc(OCC(=O)O)cc3)NC(=O)[C@H](Cc3ccc(-c4ccccc4)cc3)NC(=O)[C@H](Cc3ccc(O)cc3)NC2=O)c1 [Compound 2081] ({CH2CO}-RY(Carboxymethyl)D[Phe(3-Me)]Y[Bip]Y(Carboxymethyl)[Orn][dL][Dab][Cha]VTC[Dab][Aun]-OH; thioether N-14)
4 | 7.86 | CC(C)C[C@H]1NC(=O)[C@H](CCCN)NC(=O)[C@H](C(C)C)NC(=O)[C@H](Cc2ccc(-c3ccccc3)cc2)NC(=O)[C@H](C(C)C)NC(=O)[C@H](Cc2c[nH]c3ccccc23)NC(=O)[C@H](CC(=O)O)NC(=O)[C@H](Cc2ccc(OCC(=O)O)cc2)NC(=O)[C@H](CN)NC(=O)CSC[C@@H](C(=O)NCCOCCOCC(=O)N[C@@H](CCC(=O)O)C(=O)NCCCCCCCCCCC(=O)O)NC(=O)[C@H]([C@@H](C)O)NC(=O)[C@H](C(C)C)NC(=O)[C@H](CC2CCCCC2)NC(=O)[C@H](Cc2cnc[nH]2)NC1=O [Compound 1099] ({CH2CO}-[Dap]Y(Carboxymethyl)DWV[Bip]V[Orn][dL]H[Cha]VTC[AEEA]E[Aun]-OH; thioether N-14)
5 | 7.89 | Cc1cccc(C[C@@H]2NC(=O)[C@H](CC(=O)O)NC(=O)[C@H](Cc3ccc(OCC(=O)O)cc3)NC(=O)[C@H](CCCNC(=N)N)NC(=O)CSC[C@@H](C(=O)NC3(C(=O)NCCCCCCCCCCC(=O)O)CC3)NC(=O)[C@H]([C@@H](C)O)NC(=O)[C@H](C(C)C)NC(=O)[C@H](CC3CCCCC3)NC(=O)[C@H](CCN)NC(=O)[C@@H](CC(C)C)NC(=O)[C@H](CCN)NC(=O)[C@H](Cc3ccc(OCC(=O)O)cc3)NC(=O)[C@H](Cc3ccc(-c4ccccc4)cc3)NC(=O)[C@H](Cc3ccc(OCC(=O)O)cc3)NC2=O)c1 [Compound 2161] ({CH2CO}-RY(Carboxymethyl)D[Phe(3-Me)]Y(Carboxymethyl)[Bip]Y(Carboxymethyl)[Dab][dL][Dab][Cha]VTC[Ac3c][Aun]-OH; thioether N-14)
6 | 7.26 | CC(C)C[C@H]1NC(=O)[C@H](CCCN)NC(=O)[C@H](Cc2ccc(O)cc2)NC(=O)[C@H](Cc2ccc(-c3ccccc3)cc2)NC(=O)[C@H](C(C)C)NC(=O)[C@H](Cc2c[nH]c3ccccc23)NC(=O)[C@H](CC(=O)O)NC(=O)[C@H](Cc2ccc(OCC(=O)O)cc2)NC(=O)[C@H](CC(N)=O)NC(=O)CSC[C@@H](C(=O)N[C@@H](CCN)C(=O)NCCCCCCCCCCC(=O)O)NC(=O)[C@H](CC#N)NC(=O)[C@H](C(C)C)NC(=O)[C@H](CC2CCCCC2)NC(=O)[C@H](CCN)NC1=O [Compound 3425] ({CH2CO}-NY(Carboxymethyl)DWV[Bip]Y[Orn][dL][Dab][Cha]V[Ala(CN)]C[Dab][Aun]-OH; thioether N-14)
7 | 7.32 | Cc1cccc(C[C@@H]2NC(=O)[C@H](CC(=O)O)NC(=O)[C@H](Cc3ccc(OCC(=O)O)cc3)NC(=O)[C@H](CN)NC(=O)CSC[C@@H](C(=O)N[C@H](CC(N)=O)C(=O)NCCCCCCCCCCC(=O)O)NC(=O)[C@H](CO)NC(=O)[C@H](C(C)O)NC(=O)[C@H](CC3CCCCC3)NC(=O)[C@H](CCN)NC(=O)[C@@H](CC(C)C)NC(=O)[C@H](CCCN)NC(=O)[C@H](Cc3ccc(OCC(=O)O)cc3)NC(=O)[C@H](Cc3ccc(-c4ccccc4)cc3)NC(=O)[C@H](Cc3ccc(OCC(=O)O)cc3)NC2=O)c1 (stereo partly drawn) [Compound 3659] ({CH2CO}-[Dap]Y(Carboxymethyl)D[Phe(3-Me)]Y(Carboxymethyl)[Bip]Y(Carboxymethyl)[Orn][dL][Dab][Cha][Thr(3ξ)]SC[dN][Aun]-OH; thioether N-14)
8 | 7.65 | Cc1cccc(C[C@@H]2NC(=O)[C@H](CC(=O)O)NC(=O)[C@H](Cc3ccc(OCC(=O)O)cc3)NC(=O)[C@H](CN)NC(=O)CSC[C@@H](C(=O)N[C@@H](CCN)C(=O)NCCOCCOCC(=O)NCCCCCCCCCCC(=O)O)NC(=O)[C@H](CCCN)NC(=O)[C@H](Cc3ccc(O)cc3)NC(=O)[C@H](CC3CCCCC3)NC(=O)[C@H](CCN)NC(=O)[C@@H](CC(C)C)NC(=O)[C@H](CCCN)NC(=O)[C@H](C(C)C)NC(=O)[C@H](Cc3ccc(-c4ccccc4)cc3)NC(=O)[C@H](C(C)C)NC2=O)c1 [Compound 2586] ({CH2CO}-[Dap]Y(Carboxymethyl)D[Phe(3-Me)]V[Bip]V[Orn][dL][Dab][Cha]Y[Orn]C[Dab][AEEA][Aun]-OH; thioether N-14)
9 | 7.83 | Cc1cccc(C[C@@H]2NC(=O)[C@H](CC(=O)O)NC(=O)[C@H](Cc3ccc(OCC(=O)O)cc3)NC(=O)[C@H](CN)NC(=O)CSC[C@@H](C(=O)N[C@@H](CCN)C(=O)NCCOCCOCC(=O)NCCCCCCCCCCC(=O)O)NC(=O)[C@H](CCCN)NC(=O)[C@H](C(C)C)NC(=O)[C@H](CC3CCCCC3)NC(=O)[C@H](CCN)NC(=O)[C@@H](CC(C)C)NC(=O)[C@H](CCCN)NC(=O)[C@H](Cc3cccc(F)c3)NC(=O)[C@H](Cc3ccc(-c4ccccc4)cc3)NC(=O)[C@H](Cc3ccc(O)cc3)NC2=O)c1 [Compound 2052] ({CH2CO}-[Dap]Y(Carboxymethyl)D[Phe(3-Me)]Y[Bip][Phe(3-F)][Orn][dL][Dab][Cha]V[Orn]C[Dab][AEEA][Aun]-OH; thioether N-14)
10 | 7.91 | CC[C@H](C)[C@@H]1NC(=O)[C@H](Cc2ccc(-c3ccccc3)cc2)NC(=O)[C@H](C(C)C)NC(=O)[C@H](Cc2c[nH]c3ccccc23)NC(=O)[C@H](CC(=O)O)NC(=O)[C@H](Cc2ccc(OCC(=O)O)cc2)NC(=O)[C@H](CN)NC(=O)CSC[C@@H](C(=O)N[C@@H](CCN)C(=O)NCCOCCOCC(=O)NCCCCCCCCCCC(=O)O)NC(=O)[C@H](CCCCN)NC(=O)[C@H](C(C)C)NC(=O)[C@H](CC2CCCCC2)NC(=O)[C@H](CCN)NC(=O)[C@@H](CC(C)C)NC(=O)[C@H](CCCN)NC1=O [Compound 2632] ({CH2CO}-[Dap]Y(Carboxymethyl)DWV[Bip]I[Orn][dL][Dab][Cha]VKC[Dab][AEEA][Aun]-OH; thioether N-14)
11 | 8.01 | Cc1cccc(C[C@@H]2NC(=O)[C@H](CC(=O)O)NC(=O)[C@H](Cc3ccc(OCC(=O)O)cc3)NC(=O)[C@H](CN)NC(=O)CSC[C@@H](C(=O)N[C@@H](CCN)C(=O)NCCOCCOCC(=O)NCCCCCCCCCCC(=O)O)NC(=O)[C@H](CCCN)NC(=O)[C@H](C(C)C)NC(=O)[C@H](CC3CCCCC3)NC(=O)[C@H](CCN)NC(=O)[C@@H](CC(C)C)NC(=O)[C@H](CCCN)NC(=O)[C@H](Cc3ccc(CN)cc3)NC(=O)[C@H](Cc3ccc(-c4ccccc4)cc3)NC(=O)[C@H](Cc3ccc(O)cc3)NC2=O)c1 [Compound 2046] ({CH2CO}-[Dap]Y(Carboxymethyl)D[Phe(3-Me)]Y[Bip][Phe(4-CH2NH2)][Orn][dL][Dab][Cha]V[Orn]C[Dab][AEEA][Aun]-OH; thioether N-14)
12 | 7.53 | Cc1cccc(C[C@@H]2NC(=O)[C@H](CC(=O)O)NC(=O)[C@H](Cc3ccc(OCC(=O)O)cc3)NC(=O)[C@H](Cc3ccco3)NC(=O)CSC[C@@H](C(=O)N[C@@H](CCN)C(=O)NCCCCCCCCCCC(=O)O)NC(=O)[C@H](CO)NC(=O)[C@H](C(C)(C)O)NC(=O)[C@H](CC3CCCCC3)NC(=O)[C@H](CCN)NC(=O)[C@@H](CC(C)C)NC(=O)[C@H](CCCN)NC(=O)[C@H](Cc3ccc(O)cc3)NC(=O)[C@H](Cc3ccc(-c4ccccc4)cc3)NC(=O)[C@H](Cc3ccc(C(N)=O)cc3)NC2=O)c1 [Compound 3719] ({CH2CO}-[Ala(2-furyl)]Y(Carboxymethyl)D[Phe(3-Me)][Phe(4-CONH2)][Bip]Y[Orn][dL][Dab][Cha][Val(3-OH)]SC[Dab][Aun]-OH; thioether N-14)
13 | 8.03 | Cc1cccc(C[C@@H]2NC(=O)[C@H](CC(=O)O)NC(=O)[C@H](Cc3ccc(OCC(=O)O)cc3)NC(=O)[C@H](CN)NC(=O)CSC[C@@H](C(=O)N[C@@H](CCN)C(=O)NCCOCCOCC(=O)NCCCCCCCCCCC(=O)O)NC(=O)[C@H](CCC(=O)O)NC(=O)[C@H](C(C)C)NC(=O)[C@H](Cc3ccccc3)NC(=O)[C@H](CCN)NC(=O)[C@@H](CC(C)C)NC(=O)[C@H](CCCN)NC(=O)[C@H](Cc3ccc(OCC(=O)O)cc3)NC(=O)[C@H](Cc3ccc(-c4ccccc4)cc3)NC(=O)[C@H](Cc3ccc(OCC(=O)O)cc3)NC2=O)c1 [Compound 1261] ({CH2CO}-[Dap]Y(Carboxymethyl)D[Phe(3-Me)]Y(Carboxymethyl)[Bip]Y(Carboxymethyl)[Orn][dL][Dab]FVEC[Dab][AEEA][Aun]-OH; thioether N-14)
